In patent US8586588B2, “Aryl pyridazinone derivatives and their use as H3 receptor ligands” (Cephalon, Inc., priority 2006, dated 2013) one finds Ki data, which are given here for 29 molecules.

Molecules are shown by their SMILES. Where two headings read alike, the source gives them in different places. A value given as a limit tells only on which side of the number the result lay.

Assay [1] concerns the target T1, human H3 receptor (Homo sapiens, UniProt Q9Y5N1).
T1 construct: expressed in transfected cells
Put plainly: Human H3 radioligand binding ([3H]-N-alpha-methylhistamine, CHO cell membranes, SPA). Conditions: binding constant as letter class. Here is the method:
(§1) Cell pellets were resuspended in 5 mM Tris-HCl, pH 7.5 with […] and a cocktail of protease inhibitors (Complete Protease Inhibition Tablets, Roche Diagnostics). Cells were disrupted using a polytron cell homogenizer and the suspension was centrifuged at 1000×g for 10 minutes at 4° C. The pellet was discarded and the supernatant centrifuged at 40,000×g for 30 min at 4° C. This membrane pellet was washed in membrane buffer containing 50 mM Tris-HCl, pH 7.5 with 0.6 mM EDTA, 5 mM MgCl2 and protease inhibitors, recentrifuged as above and the final pellet resuspended in membrane buffer plus 250 mM sucrose and frozen at −80° C.
(§2) Membranes were resuspended in 50 mM Tris HCl (pH 7.4), 5 mM MgCl2, 0.1% BSA. The membrane suspensions (10 μg protein per well) were incubated in a 96 well microtiter plate with [^3H]-N-alpha-methylhistamine (approximately 1 nM final concentration), test compounds at various concentrations (0.01 nM-30 μM) and scintillation proximity beads (Perkin Elmer, FlashBlueGPCR Scintillating Beads) in a final volume of 80 μl for 4 hours at room temperature, protected from light. Non-specific binding was determined in the presence of 10 μM clobenpropit. Radioligand bound to receptor, and therefore in proximity to the scintillation beads, was measured using a MicroBeta scintillation counter.

Assay [2] deals with T2, rat histamine H3 receptor (Rattus norvegicus, UniProt Q9QYN8).
T2 construct: encoding the entire 445-amino-acid rat histamine H3 receptor; expressed in transfected cells
T2 sequence (Q9QYN8 whole entry): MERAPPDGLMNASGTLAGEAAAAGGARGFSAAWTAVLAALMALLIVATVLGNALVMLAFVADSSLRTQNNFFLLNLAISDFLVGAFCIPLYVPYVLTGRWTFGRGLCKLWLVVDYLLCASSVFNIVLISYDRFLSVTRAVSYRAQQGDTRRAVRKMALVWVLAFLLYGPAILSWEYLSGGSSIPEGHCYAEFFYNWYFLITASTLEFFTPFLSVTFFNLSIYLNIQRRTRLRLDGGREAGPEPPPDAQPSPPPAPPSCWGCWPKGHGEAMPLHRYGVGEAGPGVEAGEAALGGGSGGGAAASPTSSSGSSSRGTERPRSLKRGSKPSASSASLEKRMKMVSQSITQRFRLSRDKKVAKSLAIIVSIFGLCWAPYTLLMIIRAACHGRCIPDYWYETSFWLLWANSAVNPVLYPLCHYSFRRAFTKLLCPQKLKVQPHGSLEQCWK
Put plainly: Rat H3 radioligand binding ([3H]-N-alpha-methylhistamine, CHO-A3 cell membranes, SPA). The note with it: binding constant as letter class. As for the experimental part:
as §1, with “This was engineered into the pIRES-neo3 mammalian expression vector, which was stably transfected into the CHO-A3 cell line (Euroscreen, Belgium), followed by clonal selection by limiting dilution. Cells were harvested and cell pellets were frozen (−80° C.). Cell pellets” for “Cell pellets”
as §2

T1 sequence (Q9Y5N1 whole entry): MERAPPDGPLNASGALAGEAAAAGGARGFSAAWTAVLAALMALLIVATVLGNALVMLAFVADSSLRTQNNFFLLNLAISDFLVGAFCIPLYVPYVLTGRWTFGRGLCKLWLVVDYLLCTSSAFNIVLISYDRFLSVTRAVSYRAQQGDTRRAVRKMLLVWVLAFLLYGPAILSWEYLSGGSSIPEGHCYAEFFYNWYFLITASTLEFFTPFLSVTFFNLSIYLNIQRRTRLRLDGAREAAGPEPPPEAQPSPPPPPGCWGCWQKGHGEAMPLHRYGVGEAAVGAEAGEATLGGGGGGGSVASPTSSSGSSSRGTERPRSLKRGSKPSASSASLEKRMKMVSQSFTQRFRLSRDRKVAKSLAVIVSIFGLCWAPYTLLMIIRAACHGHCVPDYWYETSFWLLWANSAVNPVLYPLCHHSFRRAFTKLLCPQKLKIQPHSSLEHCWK

For `CC1CC(=O)NN=C1c1ccc(OCCCN2CCC[C@H]2C)cc1` (single isomer, unassigned) [Example 196], the Ki (in general, a measure of affinity in units of concentration, obtained from inhibition or displacement) in assay [1] (Table B) was in the range of 0.1 to 100 nM; in assay [2] (Table B, read-out: rat H3 Ki), 0.1 to 100 nM.

Regarding `CC1CC(=O)NN=C1c1ccc(OCCCN2CCC[C@H]2C)cc1` (single isomer, unassigned) [Example 195], the Ki in assay [1] (Table B) lay in the range of 0.1 to 100 nM; in assay [2] (Table B, read-out: rat H3 Ki), 0.1 to 100 nM.

`C[C@@H]1CCCN1CCCOc1ccc(-n2ncccc2=O)cc1` [Example 21, 2-{4-[3-((R)-2-Methyl-pyrrolidin-1-yl)-propoxy]-phenyl}-2H-pyridazin-3-one]: the Ki in assay [1] (Table A) lay within 0.1 to 100 nM; in assay [2] (Table A, read-out: Rat H3 Ki), 501 to 1000 nM.

With `C[C@@H]1CCCN1CCCOc1ccc(-c2nn(Cc3ccc(Cl)cc3)c(=O)c3ccsc23)cc1` [Example 38, 5-(4-Chloro-benzyl)-7-{4-[3-((R)-2-methyl-pyrrolidin-1-yl)-propoxy]-phenyl}-5H-thieno[2,3-d]pyridazin-4-one], the Ki in assay [1] (Table A) was 0.1 to 100 nM; in assay [2] (Table A, read-out: Rat H3 Ki), 0.1 to 100 nM.

Take `Cn1nc(-c2ccc(OCC3CCNCC3)cc2)ccc1=O` [Example 66, 2-Methyl-6-[4-(piperidin-4-ylmethoxy)-phenyl]-2H-pyridazin-3-one]: the Ki in assay [1] (Table A) is more than 1000 nM; in assay [2] (Table A, read-out: Rat H3 Ki), more than 1000 nM.

On to `Cc1nn(-c2ccsc2)c(=O)cc1-c1ccc(OC2CCN(C3CCC3)CC2)cc1` [Example 107, 5-[4-(1-Cyclobutyl-piperidin-4-yloxy)-phenyl]-6-methyl-2-thiophen-3-yl-2H-pyridazin-3-one], for which the Ki is 0.1 to 100 nM in assay [1] (Table B) and 0.1 to 100 nM in assay [2] (Table B, read-out: rat H3 Ki).

Consider `O=C1CC(c2ccccn2)C(c2ccc(OC3CCNCC3)cc2)=NN1` (stereo not drawn) [Example 113, 6-[4-(Piperidin-4-yloxy)-phenyl]-5-pyridin-2-yl-4,5-dihydro-2H-pyridazin-3-one], for which the Ki in assay [1] (Table B) was more than 1000 nM; in assay [2] (Table B, read-out: rat H3 Ki), more than 1000 nM.

As for `CCCn1nc(-c2ccc(OCCCN3CCC(C)CC3)cc2)c2sccc2c1=O` [Example 34, 7-{4-[3-(4-Methyl-piperidin-1-yl)-propoxy]-phenyl}-5-propyl-5H-thieno[2,3-d]pyridazin-4-one], the Ki in assay [1] (Table A) is 0.1 to 100 nM; in assay [2] (Table A, read-out: Rat H3 Ki), 0.1 to 100 nM.

Turning to `Cc1n[nH]c(=O)cc1-c1ccc(OCCCN2CCC[C@H]2C)cc1` [Example 88, 6-Methyl-5-{4-[3-((R)-2-methyl-pyrrolidin-1-yl)-propoxy]-phenyl}-2H-pyridazin-3-one], the Ki lay in the range of 0.1 to 100 nM in assay [1] (Table B) and 0.1 to 100 nM in assay [2] (Table B, read-out: rat H3 Ki).

Take `C[C@@H]1CCCN1CCCOc1ccc(-c2ccc(=O)n(C)n2)cc1` [Example 1, 2-Methyl-6-{4-[3-((R)-2-methyl-pyrrolidin-1-yl)-propoxy]-phenyl}-2H-pyridazin-3-one]: the Ki in assay [1] (Table A) lay within 0.1 to 100 nM; in assay [2] (Table A, read-out: Rat H3 Ki) it was 0.1 to 100 nM.

On to `C[C@@H]1CCCN1CCCOc1ccc(-c2ccc(=O)n(Cc3ccccc3)n2)cc1` [Example 18, 2-Benzyl-6-{4-[3-((R)-2-methyl-pyrrolidin-1-yl)-propoxy]-phenyl}-2H-pyridazin-3-one], for which the inhibition constant Ki was 0.1 to 100 nM in assay [1] (Table A) and 0.1 to 100 nM in assay [2] (Table A, read-out: Rat H3 Ki).

With `C[C@@H]1CCCN1CCCOc1ccc(C2=NNC(=O)C3CC23)cc1` (mixture of isomers) [Example 243, 5-{4-[3-((R)-2-Methyl-pyrrolidin-1-yl)-propoxy]-phenyl}-3,4-diaza-bicyclo[4.1.0]hept-4-en-2-one], the Ki in assay [1] (Table B) is 0.1 to 100 nM; in assay [2] (Table B, read-out: rat H3 Ki), 0.1 to 100 nM.

In the case of `C[C@@H]1CCCN1CCCOc1ccc(-c2nn(C)c(=O)c3c2CCC3)cc1` [Example 56, 2-Methyl-4-{4-[3-((R)-2-methyl-pyrrolidin-1-yl)-propoxy]-phenyl}-2,5,6,7-tetrahydro-cyclopenta[d]pyridazin-1-one], the Ki is 0.1 to 100 nM in assay [1] (Table A) and 0.1 to 100 nM in assay [2] (Table A, read-out: Rat H3 Ki).

As to `Cc1cc(OCCCN2CCC[C@H]2C)ccc1C1=NNC(=O)CC1` [Example 199, 6-{(R)-2-Methyl-4-[3-(2-methyl-pyrrolidin-1-yl)-propoxy]-phenyl}-4,5-dihydro-2H-pyridazin-3-one], the Ki lay within 0.1 to 100 nM in assay [1] (Table B) and 0.1 to 100 nM in assay [2] (Table B, read-out: rat H3 Ki).

`CC1CC(=O)NN=C1c1ccc(OCCCN2CCCC2)cc1` (racemic) [Example 198, 5-Methyl-6-[4-(3-pyrrolidin-1-yl-propoxy)-phenyl]-4,5-dihydro-2H-pyridazin-3-one]: the Ki lay within 0.1 to 100 nM in assay [1] (Table B) and 0.1 to 100 nM in assay [2] (Table B, read-out: rat H3 Ki).

As to `CC(C)N1N=C(c2ccc(OC3CCN(C4CCC4)CC3)cc2)C2CC2C1=O` (stereo not drawn) [Example 251, 5-[4-(1-Cyclobutyl-piperidin-4-yloxy)-phenyl]-3-isopropyl-3,4-diaza-bicyclo[4.1.0]hept-4-en-2-one], the inhibition constant (Ki) in assay [1] (Table B) lay in the range of 0.1 to 100 nM; in assay [2] (Table B, read-out: rat H3 Ki), 0.1 to 100 nM.

Consider `C[C@@H]1CCCN1CCCOc1ccc(-c2ccc(=O)n(C)n2)cc1F` [Example 7, 6-{3-Fluoro-4-[3-((R)-2-methyl-pyrrolidin-1-yl)-propoxy]-phenyl}-2-methyl-2H-pyridazin-3-one], for which the Ki in assay [1] (Table A) lay in the range of 0.1 to 100 nM; in assay [2] (Table A, read-out: Rat H3 Ki), 0.1 to 100 nM.

Turning to `CC1(C)CC(c2ccc(OC3CCN(C4CCC4)CC3)nc2)=NNC1=O` [Example 148, 6-[6-(1-Cyclobutyl-piperidin-4-yloxy)-pyridin-3-yl]-4,4-dimethyl-4,5-dihydro-2H-pyridazin-3-one], the Ki in assay [1] (Table B) fell in the range of 0.1 to 100 nM; in assay [2] (Table B, read-out: rat H3 Ki) it was 0.1 to 100 nM.

`Cc1nn(C)c(=O)cc1-c1ccc(OCCCN2CCCCC2)cc1` [Example 87, 2,6-Dimethyl-5-[4-(3-piperidin-1-yl-propoxy)-phenyl]-2H-pyridazin-3-one]: the Ki in assay [1] (Table B) is 0.1 to 100 nM; in assay [2] (Table B, read-out: rat H3 Ki), 0.1 to 100 nM.

Take `O=C1CCC(c2ccc(OC3CCN(C4CCC4)CC3)cc2)=NN1c1ccccn1` [Example 158, 6-[4-(1-Cyclobutyl-piperidin-4-yloxy)phenyl]-2-pyridin-2-yl-4,5-dihydro-2H-pyridazin-3-one]: the Ki was in the range of 0.1 to 100 nM in assay [1] (Table B) and 0.1 to 100 nM in assay [2] (Table B, read-out: rat H3 Ki).

Take `CCCn1nc(-c2ccc(OCCCN3CCC(N(C)C)CC3)cc2)c2sccc2c1=O` [Example 35, 7-{4-[3-(4-Dimethylamino-piperidin-1-yl)-propoxy]-phenyl}-5-propyl-5H-thieno[2,3-d]pyridazin-4-one]: the Ki is 101 to 500 nM in assay [1] (Table A) and 101 to 500 nM in assay [2] (Table A, read-out: Rat H3 Ki).

On to `COc1cn[nH]c(=O)c1-c1ccc(OCCCN2CCC[C@H]2C)cc1` [Example 237, 5-Methoxy-4-{4-[3-((R)-2-methyl-pyrrolidin-1-yl)-propoxy]-phenyl}-2H-pyridazin-3-one], for which the Ki lay in the range of 0.1 to 100 nM in assay [1] (Table B) and 0.1 to 100 nM in assay [2] (Table B, read-out: rat H3 Ki).

For the molecule `C[C@@H]1CCCN1CCCOc1cccc(-c2nn(C)c(=O)c3c2CCC3)c1` [Example 125, 2-Methyl-4-{3-[3-((R)-2-methyl-pyrrolidin-1-yl)-propoxy]-phenyl}-2,5,6,7-tetrahydro-cyclopenta[d]pyridazin-1-one], the Ki in assay [1] (Table B) lay within 101 to 500 nM; in assay [2] (Table B, read-out: rat H3 Ki), 501 to 1000 nM.

Regarding `C[C@@H]1CCCN1CCCOc1ccc(-c2ccc(=O)n(-c3ccccc3)n2)cc1F` [Example 81, 6-{3-Fluoro-4-[3-((R)-2-methyl-pyrrolidin-1-yl)-propoxy]-phenyl}-2-phenyl-2H-pyridazin-3-one], the Ki in assay [1] (Table A) is 0.1 to 100 nM; in assay [1] (Table B) it was 0.1 to 100 nM; in assay [2] (Table A, read-out: Rat H3 Ki), 0.1 to 100 nM; in assay [2] (Table B, read-out: rat H3 Ki) it was 0.1 to 100 nM.

`CC(C)n1nc(-c2ccc(OCCCN3CCC(N4CCCC4)CC3)cc2)c2sccc2c1=O` [Example 30, 5-Isopropyl-7-{4-[3-(4-pyrrolidin-1-yl-piperidin-1-yl)-propoxy]-phenyl}-5H-thieno[2,3-d]pyridazin-4-one]: the Ki lay within 0.1 to 100 nM in assay [1] (Table A) and 501 to 1000 nM in assay [2] (Table A, read-out: Rat H3 Ki).

Regarding `O=c1ccc(-c2ccc(O[C@@H]3CCN(C4CCC4)C3)cc2)n[nH]1` [Example 161, 6-[4-((R)-1-Cyclobutyl-pyrrolidin-3-yloxy)-phenyl]-2H-pyridazin-3-one], the Ki was more than 1000 nM in assay [1] (Table B) and more than 1000 nM in assay [2] (Table B, read-out: rat H3 Ki).

Consider `CC(C)N1N=C(c2ccc(OCCCN3CCCCC3)cc2)CCC1=O` [Example 4, 2-Isopropy1-6-[4-(3-piperidin-1-yl-propoxy)-phenyl]-4,5-dihydro-2H-pyridazin-3-one], for which the Ki in assay [1] (Table A) was 0.1 to 100 nM; in assay [2] (Table A, read-out: Rat H3 Ki), 0.1 to 100 nM.

As for `O=c1cc2c(nn1Cc1ccccc1)-c1ccc(OCCCN3CCCCC3)cc1CC2` [Example 77, 2-Benzyl-8-(3-piperidin-1-yl-propoxy)-5,6-dihydro-2H-benzo[h]cinnolin-3-one], the Ki in assay [1] (Table A) is 0.1 to 100 nM; in assay [2] (Table A, read-out: Rat H3 Ki), 101 to 500 nM.

Regarding `C[C@@H]1CCCN1CCCOc1ccc(C2=NN(Cc3ccccc3)C(=O)CC2)cc1` [Example 17, 2-Benzyl-6-{4-[3-((R)-2-methyl-pyrrolidin-1-yl)-propoxy]-phenyl}-4,5-dihydro-2H-pyridazin-3-one], the Ki was in the range of 0.1 to 100 nM in assay [1] (Table A) and 0.1 to 100 nM in assay [2] (Table A, read-out: Rat H3 Ki).
